Reference: the supplement of paper PMC11451515

Test system: P12-Ichikawa
Test: cell viability relative to DMSO control; higher = less cytotoxic
Conditions: 48 h
In short: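 Viability was expressed as a per-plate percentage of DMSO wells, with cell-free wells as background. Leukemia cells (NOMO1 or SEM at 500 cells/well, P12-Ichikawa at 1000 cells/well) were adapted for at least four passages in each medium and seeded in 1536-well plates (5 μl). Library compounds in DMSO were pin-dosed over an 11-point threefold series from 47 μM to 0.79 nM, and CellTiter-Glo One luminescence was read after 48 h at 37°C.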

[1] = HPLM + 10% dialyzed FBS, 0.000781 µM
[2] = HPLM + 10% dialyzed FBS, 0.00234 µM
[3] = HPLM + 10% dialyzed FBS, 0.00702 µM
[4] = HPLM + 10% dialyzed FBS, 0.0211 µM
[5] = HPLM + 10% dialyzed FBS, 0.0632 µM
[6] = HPLM + 10% dialyzed FBS, 0.19 µM
[7] = HPLM + 10% dialyzed FBS, 0.569 µM
[8] = HPLM + 10% dialyzed FBS, 1.71 µM
[9] = HPLM + 10% dialyzed FBS, 5.12 µM
[10] = HPLM + 10% dialyzed FBS, 15.4 µM
[11] = HPLM + 10% dialyzed FBS, 46.1 µM
[12] = RPMI 5 mM glucose + 10% FBS, 0.000781 µM
[13] = RPMI 5 mM glucose + 10% FBS, 0.00234 µM
[14] = RPMI 5 mM glucose + 10% FBS, 0.00702 µM
[15] = RPMI 5 mM glucose + 10% FBS, 0.0211 µM
[16] = RPMI 5 mM glucose + 10% FBS, 0.0632 µM
[17] = RPMI 5 mM glucose + 10% FBS, 0.19 µM
[18] = RPMI 5 mM glucose + 10% FBS, 0.569 µM
[19] = RPMI 5 mM glucose + 10% FBS, 1.71 µM
[20] = RPMI 5 mM glucose + 10% FBS, 5.12 µM
[21] = RPMI 5 mM glucose + 10% FBS, 15.4 µM
[22] = RPMI 5 mM glucose + 10% FBS, 46.1 µM
[23] = RPMI 5 mM glucose + 10% dialyzed FBS, 0.000781 µM
[24] = RPMI 5 mM glucose + 10% dialyzed FBS, 0.00234 µM
[25] = RPMI 5 mM glucose + 10% dialyzed FBS, 0.00702 µM
[26] = RPMI 5 mM glucose + 10% dialyzed FBS, 0.0211 µM
[27] = RPMI 5 mM glucose + 10% dialyzed FBS, 0.0632 µM
[28] = RPMI 5 mM glucose + 10% dialyzed FBS, 0.19 µM
[29] = RPMI 5 mM glucose + 10% dialyzed FBS, 0.569 µM
[30] = RPMI 5 mM glucose + 10% dialyzed FBS, 1.71 µM
[31] = RPMI 5 mM glucose + 10% dialyzed FBS, 5.12 µM
[32] = RPMI 5 mM glucose + 10% dialyzed FBS, 15.4 µM
[33] = RPMI 5 mM glucose + 10% dialyzed FBS, 46.1 µM

Row | SMILES | cell viability [1] | cell viability [2] | cell viability [3] | cell viability [4] | cell viability [5] | cell viability [6] | cell viability [7] | cell viability [8] | cell viability [9] | cell viability [10] | cell viability [11] | cell viability [12] | cell viability [13] | cell viability [14] | cell viability [15] | cell viability [16] | cell viability [17] | cell viability [18] | cell viability [19] | cell viability [20] | cell viability [21] | cell viability [22] | cell viability [23] | cell viability [24] | cell viability [25] | cell viability [26] | cell viability [27] | cell viability [28] | cell viability [29] | cell viability [30] | cell viability [31] | cell viability [32] | cell viability [33]
1 | CC[C@H]1OC(=O)[C@H](C)C(=O)[C@H](C)[C@@H](O[C@H]2O[C@H](C)C[C@H](N(C)C)[C@H]2O)[C@](C)(OC)C[C@@H](C)C(=O)[C@H](C)[C@H]2N(CCCCn3cnc(-c4cccnc4)c3)C(=O)O[C@]12C | 102% | 119% | 98.3% | 115% | 120% | 116% | 99.1% | 98.3% | 104% | 96.1% | 96.1% | 103% | 109% | 111% | 115% | 122% | 104% | 88.3% | 89.5% | 103% | 105% | 96.5% | 111% | 122% | 140% | 147% | 130% | 82% | 63.3% | 89.9% | 114% | 92.6% | 97.5%
2 | CC1=CC(=CC(=C1C\C2=N\CCN2)C)C(C)(C)C | 102% | 105% | 105% | 106% | 105% | 124% | 107% | 116% | 106% | 104% | 102% | 99.5% | 105% | 105% | 114% | 118% | 113% | 111% | 114% | 99.3% | 86.4% | 90.2% | 91% | 96.4% | 98.1% | 100% | 105% | 92.9% | 103% | 102% | 97.9% | 91.4% | 84.1%
3 | C=CC(=O)Nc1cc2c(Nc3ccc(F)c(Cl)c3)ncnc2cc1OCCCN1CCOCC1 | 124% | 132% | 119% | 120% | 118% | 122% | 113% | 109% | 94.3% | 67.2% | 53.1% | 117% | 124% | 125% | 126% | 111% | 110% | 118% | 110% | 93.5% | 73.6% | 89.8% | 134% | 122% | 119% | 126% | 126% | 128% | 127% | 108% | 96.4% | 91.6% | 100%
4 | OCC(O)C(O)C(O)CO (stereo not given) | 95.6% | 102% | 97.8% | 99.8% | 98.4% | 94.3% | 103% | 92.3% | 88.1% | 88.7% | 87.7% | 83.8% | 96% | 95.3% | 95.4% | 91.1% | 92.3% | 99% | 87.1% | 86.3% | 77.8% | 89.1% | 87.2% | 89.9% | 95.3% | 89.8% | 97.2% | 89.9% | 93.7% | 85.4% | 88.3% | 79.2% | 91.8%
5 | COc1cc(C(=O)N2CC[C@@H](O)[C@@H](N)C2)cc2nc(-c3cc4ccccc4n3CC3CC3)n(C)c12 | 117% | 116% | 123% | 121% | 121% | 44.3% | 31% | 27.5% | 29% | 23.8% | 18.6% | 119% | 127% | 123% | 122% | 137% | 117% | 111% | 33.4% | 25.9% | 21.5% | 11.2% | – | – | – | – | – | – | – | – | – | – | –
6 | CNC(=O)c1ccc(Nc2cc(Nc3ccccc3[S+](=O)([O-])C(C)C)c3cc[nH]c3n2)nc1 | 98.8% | 104% | 107% | 100% | 110% | 111% | 113% | 89.8% | 12.5% | 10.6% | 22.3% | 108% | 108% | 105% | 115% | 105% | 113% | 98.1% | 66.7% | 14.7% | 12.6% | 19.2% | 109% | 105% | 111% | 105% | 116% | 118% | 107% | 83.5% | 26.7% | 28.2% | 29.6%
7 | O=C(O)C(=O)c1cn(Cc2ccccc2)c2ccc(-c3ccc(OC(F)(F)F)cc3)cc12 | 106% | 105% | 109% | 110% | 111% | 109% | 97.6% | 103% | 98.2% | 95% | 93.4% | 99.9% | 109% | 102% | 102% | 100% | 99.9% | 109% | 103% | 102% | 98.4% | 87% | 95.9% | 103% | 98.7% | 101% | 101% | 97.2% | 94.4% | 91.6% | 102% | 99.6% | 90.2%
